Numbers after ± are expanded uncertainties.
Experiment: molar heat capacity at constant pressure
Details: 100 kPa, Extra sensitive DSC

## CCn1cc[n+](C)c1.[Cl-] [1-ethyl-3-methylimidazolium chloride]
293.15 K, Crystal
  molar heat capacity at constant pressure: 216.99 ± 12 J/K/mol
303.15 K, Crystal
  molar heat capacity at constant pressure: 221.39 ± 12 J/K/mol
313.15 K, Crystal
  molar heat capacity at constant pressure: 224.33 ± 12 J/K/mol
363.15 K, Liquid
  molar heat capacity at constant pressure: 284.44 ± 13 J/K/mol
373.15 K, Liquid
  molar heat capacity at constant pressure: 291.77 ± 13 J/K/mol

— the NIST ThermoML archive (doi:10.1021/acs.jced.8b00771)
